Assay results as given in paper doi:10.1101/2023.11.24.568596v1 (biorxiv, 2023).

Legend:
Settings in all cases: binder
[1] = molecular target: CK2a2 (Homo sapiens, UniProt P19784)
[2] = molecular target: T1, EphB1 (Homo sapiens, UniProt P54762)
T1 sequence (P54762 1-984): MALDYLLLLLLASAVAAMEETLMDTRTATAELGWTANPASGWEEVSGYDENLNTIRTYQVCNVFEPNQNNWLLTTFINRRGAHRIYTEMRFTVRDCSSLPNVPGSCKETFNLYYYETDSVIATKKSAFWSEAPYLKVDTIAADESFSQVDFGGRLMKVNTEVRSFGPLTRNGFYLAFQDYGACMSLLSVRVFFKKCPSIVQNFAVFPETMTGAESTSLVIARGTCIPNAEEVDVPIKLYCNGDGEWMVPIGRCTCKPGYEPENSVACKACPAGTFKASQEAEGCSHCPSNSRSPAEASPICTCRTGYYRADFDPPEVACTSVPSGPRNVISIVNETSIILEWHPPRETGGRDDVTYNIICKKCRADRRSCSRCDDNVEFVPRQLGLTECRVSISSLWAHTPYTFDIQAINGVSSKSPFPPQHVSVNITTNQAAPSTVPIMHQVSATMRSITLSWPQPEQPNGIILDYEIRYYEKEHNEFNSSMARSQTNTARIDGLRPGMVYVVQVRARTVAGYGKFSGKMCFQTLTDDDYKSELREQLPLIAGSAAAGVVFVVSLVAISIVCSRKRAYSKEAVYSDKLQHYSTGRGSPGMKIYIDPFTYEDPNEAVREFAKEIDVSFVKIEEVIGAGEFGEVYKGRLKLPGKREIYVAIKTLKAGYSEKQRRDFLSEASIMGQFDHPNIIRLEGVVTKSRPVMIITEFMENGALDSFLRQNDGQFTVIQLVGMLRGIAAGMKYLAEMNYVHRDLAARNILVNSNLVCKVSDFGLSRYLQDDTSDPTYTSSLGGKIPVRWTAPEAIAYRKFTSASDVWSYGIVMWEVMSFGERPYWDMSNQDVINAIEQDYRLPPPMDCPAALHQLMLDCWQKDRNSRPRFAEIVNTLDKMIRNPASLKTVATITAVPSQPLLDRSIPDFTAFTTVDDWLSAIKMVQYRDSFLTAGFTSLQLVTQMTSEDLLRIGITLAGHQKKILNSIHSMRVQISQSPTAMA

[3] = molecular target: NDR2 (Homo sapiens, UniProt Q9Y2H1)
[4] = molecular target: SLK (Homo sapiens, UniProt Q9H2G2)
Chain of SLK (Q9H2G2 whole entry): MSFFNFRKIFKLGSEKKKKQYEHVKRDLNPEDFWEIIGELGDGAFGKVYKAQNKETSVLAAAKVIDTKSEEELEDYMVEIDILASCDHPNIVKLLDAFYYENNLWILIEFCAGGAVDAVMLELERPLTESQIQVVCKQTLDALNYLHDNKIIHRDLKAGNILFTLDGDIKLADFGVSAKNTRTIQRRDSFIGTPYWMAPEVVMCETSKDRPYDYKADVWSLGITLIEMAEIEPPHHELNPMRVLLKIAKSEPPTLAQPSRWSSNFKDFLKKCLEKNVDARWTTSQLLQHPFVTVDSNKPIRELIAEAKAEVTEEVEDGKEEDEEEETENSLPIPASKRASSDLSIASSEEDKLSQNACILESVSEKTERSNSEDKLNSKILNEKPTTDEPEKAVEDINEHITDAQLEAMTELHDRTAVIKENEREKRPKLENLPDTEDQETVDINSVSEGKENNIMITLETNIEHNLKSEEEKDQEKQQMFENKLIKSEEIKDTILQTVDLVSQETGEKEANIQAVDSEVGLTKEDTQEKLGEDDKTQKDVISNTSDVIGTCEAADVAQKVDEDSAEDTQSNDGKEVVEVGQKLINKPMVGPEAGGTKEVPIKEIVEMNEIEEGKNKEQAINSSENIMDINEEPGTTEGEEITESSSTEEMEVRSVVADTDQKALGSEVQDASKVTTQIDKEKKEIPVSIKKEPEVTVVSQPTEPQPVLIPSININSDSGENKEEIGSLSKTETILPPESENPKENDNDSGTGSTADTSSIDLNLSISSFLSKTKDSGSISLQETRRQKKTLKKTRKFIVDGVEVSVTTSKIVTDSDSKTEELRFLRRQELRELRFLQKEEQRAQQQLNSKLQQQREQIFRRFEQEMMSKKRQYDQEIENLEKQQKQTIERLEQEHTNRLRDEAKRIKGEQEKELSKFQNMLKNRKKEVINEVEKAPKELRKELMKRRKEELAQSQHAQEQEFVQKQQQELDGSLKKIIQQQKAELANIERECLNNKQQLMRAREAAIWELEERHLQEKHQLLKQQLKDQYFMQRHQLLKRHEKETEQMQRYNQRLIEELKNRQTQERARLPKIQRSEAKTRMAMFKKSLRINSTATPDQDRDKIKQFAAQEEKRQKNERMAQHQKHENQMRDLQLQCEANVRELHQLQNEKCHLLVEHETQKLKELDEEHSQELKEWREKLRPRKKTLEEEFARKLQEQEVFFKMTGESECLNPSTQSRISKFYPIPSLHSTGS

[5] = molecular target: Wnk1 (Homo sapiens, UniProt Q9H4A3)
Chain of Wnk1 (Q9H4A3 whole entry): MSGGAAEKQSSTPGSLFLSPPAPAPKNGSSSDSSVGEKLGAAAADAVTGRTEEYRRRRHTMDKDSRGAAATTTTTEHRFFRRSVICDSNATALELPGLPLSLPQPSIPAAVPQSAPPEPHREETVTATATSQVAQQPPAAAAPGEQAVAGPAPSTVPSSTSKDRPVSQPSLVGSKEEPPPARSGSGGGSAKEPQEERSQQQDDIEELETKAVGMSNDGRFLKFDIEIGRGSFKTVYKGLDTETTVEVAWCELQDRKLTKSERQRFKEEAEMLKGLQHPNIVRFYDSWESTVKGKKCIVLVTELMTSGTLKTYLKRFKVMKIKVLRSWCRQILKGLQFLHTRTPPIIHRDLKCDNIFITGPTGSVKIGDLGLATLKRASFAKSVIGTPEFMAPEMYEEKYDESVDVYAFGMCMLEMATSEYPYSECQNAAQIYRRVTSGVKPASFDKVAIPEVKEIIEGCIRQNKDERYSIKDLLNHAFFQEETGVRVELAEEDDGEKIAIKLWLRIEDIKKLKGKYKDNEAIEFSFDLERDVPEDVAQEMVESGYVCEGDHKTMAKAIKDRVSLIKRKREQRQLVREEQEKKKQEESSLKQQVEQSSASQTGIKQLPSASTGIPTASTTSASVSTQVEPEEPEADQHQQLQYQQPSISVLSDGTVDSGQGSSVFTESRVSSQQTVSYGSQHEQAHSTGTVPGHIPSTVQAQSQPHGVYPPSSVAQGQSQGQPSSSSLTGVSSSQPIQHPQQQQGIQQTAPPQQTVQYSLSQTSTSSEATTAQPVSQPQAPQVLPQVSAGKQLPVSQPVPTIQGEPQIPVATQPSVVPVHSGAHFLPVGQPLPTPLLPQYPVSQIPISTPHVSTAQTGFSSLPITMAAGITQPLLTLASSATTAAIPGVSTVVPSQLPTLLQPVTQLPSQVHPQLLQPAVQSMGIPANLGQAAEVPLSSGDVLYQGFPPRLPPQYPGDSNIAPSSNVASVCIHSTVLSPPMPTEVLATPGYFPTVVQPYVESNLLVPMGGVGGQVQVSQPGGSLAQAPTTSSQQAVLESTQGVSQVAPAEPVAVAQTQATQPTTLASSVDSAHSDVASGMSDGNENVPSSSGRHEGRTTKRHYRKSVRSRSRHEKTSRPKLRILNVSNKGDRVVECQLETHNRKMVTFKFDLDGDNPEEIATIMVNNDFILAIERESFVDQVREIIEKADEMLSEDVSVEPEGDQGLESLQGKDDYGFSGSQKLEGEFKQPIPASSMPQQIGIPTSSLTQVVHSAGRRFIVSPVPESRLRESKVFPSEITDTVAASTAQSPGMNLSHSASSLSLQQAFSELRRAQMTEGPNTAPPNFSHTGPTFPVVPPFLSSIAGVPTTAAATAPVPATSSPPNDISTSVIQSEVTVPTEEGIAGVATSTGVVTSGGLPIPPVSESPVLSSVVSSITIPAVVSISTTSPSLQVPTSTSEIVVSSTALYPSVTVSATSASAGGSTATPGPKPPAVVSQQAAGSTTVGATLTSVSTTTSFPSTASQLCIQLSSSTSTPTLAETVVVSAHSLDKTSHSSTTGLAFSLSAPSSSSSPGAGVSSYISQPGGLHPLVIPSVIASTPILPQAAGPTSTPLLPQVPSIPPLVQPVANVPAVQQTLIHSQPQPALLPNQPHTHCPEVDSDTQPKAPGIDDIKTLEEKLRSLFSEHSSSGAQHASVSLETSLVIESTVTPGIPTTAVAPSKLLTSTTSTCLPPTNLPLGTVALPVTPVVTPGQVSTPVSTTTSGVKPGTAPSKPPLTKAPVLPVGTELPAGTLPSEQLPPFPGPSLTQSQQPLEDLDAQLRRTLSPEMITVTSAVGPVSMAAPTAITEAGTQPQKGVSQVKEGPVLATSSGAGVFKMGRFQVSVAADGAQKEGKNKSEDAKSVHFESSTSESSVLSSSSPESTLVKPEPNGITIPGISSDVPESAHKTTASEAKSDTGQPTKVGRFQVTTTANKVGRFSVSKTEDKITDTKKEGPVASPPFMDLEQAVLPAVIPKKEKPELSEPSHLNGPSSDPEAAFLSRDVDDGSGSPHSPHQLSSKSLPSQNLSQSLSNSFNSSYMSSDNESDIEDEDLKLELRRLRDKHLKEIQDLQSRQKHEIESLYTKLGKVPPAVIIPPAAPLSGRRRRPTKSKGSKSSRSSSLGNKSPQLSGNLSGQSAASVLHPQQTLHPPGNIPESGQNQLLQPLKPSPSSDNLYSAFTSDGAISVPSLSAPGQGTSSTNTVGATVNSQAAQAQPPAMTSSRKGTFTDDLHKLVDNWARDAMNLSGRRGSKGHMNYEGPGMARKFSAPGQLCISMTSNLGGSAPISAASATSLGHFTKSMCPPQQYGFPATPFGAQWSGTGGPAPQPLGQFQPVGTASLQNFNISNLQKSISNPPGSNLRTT

[6] = molecular target: T2, MST1 (Homo sapiens, UniProt Q13043)
T2 sequence (Q13043 1-487): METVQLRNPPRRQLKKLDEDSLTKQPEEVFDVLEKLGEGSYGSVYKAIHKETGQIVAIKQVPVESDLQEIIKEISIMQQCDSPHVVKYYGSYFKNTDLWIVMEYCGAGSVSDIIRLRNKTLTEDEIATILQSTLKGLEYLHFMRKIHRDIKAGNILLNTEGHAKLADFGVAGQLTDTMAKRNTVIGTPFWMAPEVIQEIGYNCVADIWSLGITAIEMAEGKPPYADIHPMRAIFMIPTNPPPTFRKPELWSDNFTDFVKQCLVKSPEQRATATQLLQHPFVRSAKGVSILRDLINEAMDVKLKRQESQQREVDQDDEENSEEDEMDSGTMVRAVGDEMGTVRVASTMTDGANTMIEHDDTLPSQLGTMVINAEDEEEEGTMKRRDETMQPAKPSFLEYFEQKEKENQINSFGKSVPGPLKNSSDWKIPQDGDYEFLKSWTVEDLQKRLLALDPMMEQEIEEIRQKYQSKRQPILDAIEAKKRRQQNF

[7] = molecular target: T3, MST2 (Homo sapiens, UniProt Q13188)
T3 sequence (Q13188 1-491): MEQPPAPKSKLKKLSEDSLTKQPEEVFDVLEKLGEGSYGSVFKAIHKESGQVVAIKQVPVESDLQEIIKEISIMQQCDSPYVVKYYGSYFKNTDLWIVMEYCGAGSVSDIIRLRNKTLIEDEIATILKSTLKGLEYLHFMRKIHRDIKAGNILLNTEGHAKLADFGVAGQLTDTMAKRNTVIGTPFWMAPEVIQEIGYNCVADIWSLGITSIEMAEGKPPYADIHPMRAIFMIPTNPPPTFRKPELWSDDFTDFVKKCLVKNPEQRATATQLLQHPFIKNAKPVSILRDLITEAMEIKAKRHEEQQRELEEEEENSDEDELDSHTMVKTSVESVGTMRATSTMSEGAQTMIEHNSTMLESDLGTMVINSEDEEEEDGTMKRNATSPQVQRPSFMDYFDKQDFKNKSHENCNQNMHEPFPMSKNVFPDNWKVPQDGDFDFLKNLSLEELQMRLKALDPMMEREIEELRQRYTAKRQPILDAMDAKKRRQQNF

[8] = molecular target: MST3 (Homo sapiens, UniProt Q9Y6E0)
[9] = molecular target: MST4 (Homo sapiens, UniProt Q9P289)
Chain of MST4 (Q9P289 whole entry): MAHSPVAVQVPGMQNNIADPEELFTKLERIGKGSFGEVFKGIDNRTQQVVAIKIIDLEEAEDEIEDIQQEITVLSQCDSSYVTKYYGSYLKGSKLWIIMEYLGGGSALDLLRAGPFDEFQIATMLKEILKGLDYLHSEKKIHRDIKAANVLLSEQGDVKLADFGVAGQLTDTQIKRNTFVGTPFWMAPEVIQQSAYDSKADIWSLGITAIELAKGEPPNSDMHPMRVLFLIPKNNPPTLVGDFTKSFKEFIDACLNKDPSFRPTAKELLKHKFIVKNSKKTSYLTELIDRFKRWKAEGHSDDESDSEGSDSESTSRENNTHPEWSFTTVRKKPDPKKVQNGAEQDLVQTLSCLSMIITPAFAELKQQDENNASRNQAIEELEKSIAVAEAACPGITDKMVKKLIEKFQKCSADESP

[10] = molecular target: PAK1 (Homo sapiens, UniProt Q13153)
Chain of PAK1 (Q13153 whole entry): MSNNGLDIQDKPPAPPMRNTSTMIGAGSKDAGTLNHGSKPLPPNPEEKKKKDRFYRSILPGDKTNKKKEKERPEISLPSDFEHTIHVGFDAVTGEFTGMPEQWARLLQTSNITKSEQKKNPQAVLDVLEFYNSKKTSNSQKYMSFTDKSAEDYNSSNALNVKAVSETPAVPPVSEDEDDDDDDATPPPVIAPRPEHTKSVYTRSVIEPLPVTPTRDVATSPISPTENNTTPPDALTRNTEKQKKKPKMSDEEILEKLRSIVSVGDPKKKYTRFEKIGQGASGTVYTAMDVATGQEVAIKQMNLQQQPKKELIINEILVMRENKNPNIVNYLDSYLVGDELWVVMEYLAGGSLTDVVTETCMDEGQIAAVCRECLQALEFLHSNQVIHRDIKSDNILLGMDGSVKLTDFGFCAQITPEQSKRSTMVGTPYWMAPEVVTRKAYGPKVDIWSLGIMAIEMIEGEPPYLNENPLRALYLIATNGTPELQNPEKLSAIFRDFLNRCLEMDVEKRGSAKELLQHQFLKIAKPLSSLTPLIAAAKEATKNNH

Chain of CK2a2 (P19784 whole entry): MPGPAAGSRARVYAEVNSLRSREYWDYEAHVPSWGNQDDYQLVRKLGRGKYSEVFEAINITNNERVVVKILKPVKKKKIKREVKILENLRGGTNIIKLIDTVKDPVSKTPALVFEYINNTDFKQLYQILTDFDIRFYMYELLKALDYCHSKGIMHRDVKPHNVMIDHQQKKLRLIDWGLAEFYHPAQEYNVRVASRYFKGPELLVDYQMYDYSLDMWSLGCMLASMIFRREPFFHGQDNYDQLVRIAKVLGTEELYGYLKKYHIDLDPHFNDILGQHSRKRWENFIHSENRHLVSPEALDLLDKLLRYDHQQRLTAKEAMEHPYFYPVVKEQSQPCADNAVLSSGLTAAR

ΔTm 31 [1] [°C] | ΔTm 31 [2] [°C] | ΔTm 31 [3] [°C] | ΔTm 31 [4] [°C] | ΔTm 31 [5] [°C] | dTm MST1 [6] [°C] | dTm MST2 [7] [°C] | dTm MST3 [8] [°C] | dTm MST4 [9] [°C] | dTm PAK1 [10] [°C] | ΔTm 32 [1] [°C] | ΔTm 32 [2] [°C] | ΔTm 32 [3] [°C] | ΔTm 32 [4] [°C] | ΔTm 32 [5] [°C] | ΔTm 29 [1] [°C] | ΔTm 29 [2] [°C] | ΔTm 29 [3] [°C] | ΔTm 29 [4] [°C] | ΔTm 29 [5] [°C] | SMILES
-0.9 | 6.6 | 9.9 | 7.7 | 3.1 | 8.0 | 13.7 | 17.1 | 15.0 | 9.2 | – | – | – | – | – | – | – | – | – | – | Cc1cccc(-c2ccc(-c3cc4cnc(Nc5ccc(O)cc5)nc4n(CCCCN)c3=O)c(Cl)c2)n1 [compound 31, 8-(4-Aminobutyl)-6-(2-chloro-4-(6-methylpyridin-2-yl)phenyl)-2-((4-hydroxyphenyl)amino) pyrido[2,3-d]pyrimidin-7(8H)-one]
– | – | – | – | – | 8.1 | 13.2 | 17.5 | 15.9 | 9.1 | -1.6 | 6.6 | 10.1 | 7.8 | 3.5 | – | – | – | – | – | Cc1cccc(-c2ccc(-c3cc4cnc(Nc5ccc(C)c(O)c5)nc4n(CCCCN)c3=O)c(Cl)c2)n1 [compound 32, 8-(4-Aminobutyl)-6-(2-chloro-4-(6-methylpyridin-2-yl)phenyl)-2-((3-hydroxy-4-methylphenyl)amino)pyrido[2,3-d]pyrimidin-7(8H)-one]
– | – | – | – | – | 3.1 | 5.2 | 13.0 | 8.9 | 5.0 | – | – | – | – | – | -1.6 | 4.3 | 4.9 | 3.5 | 0.6 | Cc1cccc(-c2ccc(-c3cc4cnc(NCCCN5CCNCC5)nc4n(CCCCN)c3=O)c(Cl)c2)n1 [compound 29, 8-(4-Aminobutyl)-6-(2-chloro-4-(6-methylpyridin-2-yl)phenyl)-2-((3-(piperazin-1-yl)propyl)amino)pyrido[2,3-d]pyrimidin-7(8H)-one]
